In patent publication US20090069370A1, “AZACYCLYLISOQUINOLINONE AND ISOINDOLINONE DERIVATIVES AS HISTAMINE-3 ANTAGONISTS” (Wyeth, priority 2007, published 2009) one finds melting point data, which are given here for 21 compounds.

Structures can show the parent of a compound that is named as a salt.

In the case of `C[C@@H]1CCCN1C(=O)c1ccc(-c2ccc3c(c2)CCN([C@@H]2CCN(C4CCC4)C2)C3=O)c(F)c1` (as salt: hydrochloride) [Example 76, 2-[(3R)-1-cyclobutylpyrrolidin-3-yl]-6-(2-fluoro-4-{[(2R)-2-methylpyrrolidin-1-yl]carbonyl}phenyl)-3,4-dihydroisoquinolin-1(2H)-one], the melting point (commonly the temperature, or range, at which the solid turns liquid) lay within 239 to 241 °C. With `C[C@H]1CCCN1C(=O)c1ccc(-c2ccc3c(c2)CCN([C@@H]2CCN(C4CCC4)C2)C3=O)c(F)c1` (as salt: hydrochloride) [Example 73, 2-[(3R)-1-cyclobutylpyrrolidin-3-yl]-6-(2-fluoro-4-{[(2S)-2-methylpyrrolidin-1-yl]carbonyl}phenyl)-3,4-dihydroisoquinolin-1(2H)-one], the melting point lay in the range of 212 to 213 °C.

With `O=C1c2ccc(-c3ccc(F)cc3)cc2CCN1[C@@H]1CCN(C2CCC2)C1` (as salt: hydrochloride) [Example 51, 2-[(3R)-1-cyclobutylpyrrolidin-3-yl]-6-(4-fluorophenyl)-3,4-dihydroisoquinolin-1(2H)-one], the melting point lay within 231 to 233 °C. For `O=C(c1ccc(-c2ccc3c(c2)CCN([C@@H]2CCN(C4CCCC4)C2)C3=O)cc1)N1CCCC1` (as salt: hydrochloride) [Example 43, 2-[(3R)-1-cyclopentylpyrrolidin-3-yl]-6-[4-(pyrrolidin-1-ylcarbonyl)phenyl]-3,4-dihydroisoquinolin-1(2H)-one] the value was over 200 °C; for `CN(C)C(=O)c1ccc(COc2ccc3c(c2)CCN(C2CCN(C4CCC4)CC2)C3=O)cc1` (as salt: hydrochloride) [Example 18, 4-({[2-(1-Cyclobutylpiperidin-4-yl)-1-oxo-1,2,3,4-tetrahydroisoquinolin-6-yl]oxy}methyl)-N,N-dimethylbenzamide], 292 to 294 °C. In the case of `CN1CCC(N2Cc3cc(-c4ccc(C#N)cc4)ccc3C2=O)CC1` (as salt: hydrochloride) [Example 23], the melting point fell in the range of 322 to 323 °C. `O=C(c1cccc(-c2ccc3c(c2)CCN([C@@H]2CCN(C4CCC4)C2)C3=O)c1)N1CCCC1` (as salt: hydrochloride) [Example 52, 2-[(3R)-1-cyclobutylpyrrolidin-3-yl]-6-[3-(pyrrolidin-1-ylcarbonyl)phenyl]-3,4-dihydroisoquinolin-1(2H)-one]: the melting point lay within 203 to 205 °C. For `N#Cc1ccc(-c2ccc3c(c2)CN(C2CCN(C4CCCC4)CC2)C3=O)cc1` (as salt: hydrochloride) [Example 29, 4-[2-(1-Cyclopentylpiperidin-4-yl)-1-oxo-2,3-dihydro-1H-isoindol-5-yl]benzonitrile] the value was 270 °C (dec.); for `CCCN1CCC(N2Cc3cc(-c4ccc(C#N)cc4)ccc3C2=O)CC1` (as salt: hydrochloride) [Example 25, 4-[1-Oxo-2-(1-propylpiperidin-4-yl)-2,3-dihydro-1H-isoindol-5-yl]benzonitrile], 300 to 302 °C; for `CNC(=O)c1ccc(Oc2ccc3c(c2)CCN([C@@H]2CCN(C4CCC4)C2)C3=O)cc1` (as salt: hydrochloride) [Example 33, 4-({2-[(3R)-1-cyclobutylpyrrolidin-3-yl]-1-oxo-1,2,3,4-tetrahydroisoquinolin-6-yl}oxy)-N-methylbenzamide], 206 to 208 °C.

Consider `O=C(c1ccc(-c2ccc3c(c2)CCN([C@@H]2CCN(CC4CCCC4)C2)C3=O)cc1)N1CCCC1` (as salt: hydrochloride) [Example 59, 2-[(3R)-1-(cyclopentylmethyl)pyrrolidin-3-yl]-6-[4-(pyrrolidin-1-ylcarbonyl)phenyl]-3,4-dihydroisoquinolin-1(2H)-one], for which the melting point fell in the range of 288 to 290 °C. For `CNC(=O)c1ccc(Oc2ccc3c(c2)CCN([C@@H]2CCN(C4CCCC4)C2)C3=O)cc1` (as salt: hydrochloride) [Example 37, 4-({2-[(3R)-1-cyclopentylpyrrolidin-3-yl]-1-oxo-1,2,3,4-tetrahydroisoquinolin-6-yl}oxy)-N-methylbenzamide] the value was 223 to 224 °C.

The compound `O=C(NC1CCC1)c1ccc(-c2ccc3c(c2)CCN([C@@H]2CCN(C4CCC4)C2)C3=O)c(F)c1` (as salt: hydrochloride) [Example 74, N-cyclobutyl-4-{2-[(3R)-1-cyclobutylpyrrolidin-3-yl]-1-oxo-1,2,3,4-tetrahydroisoquinolin-6-yl}-3-fluorobenzamide] had a melting point of over 230 °C. The figure for `NC(=O)c1ccc(Oc2ccc3c(c2)CCN(C2CCN(C4CCC4)CC2)C3=O)cc1` (as salt: hydrochloride) [Example 3, 4-{[2-(1-cyclobutylpiperidin-4-yl)-1-oxo-1,2,3,4-tetrahydroiso-quinolin-6-yl]oxy}benzamide Hydrochloride] is 309 to 310 °C; for `O=C(c1ccc(-c2ccc3c(c2)CCN([C@@H]2CCN(C4CCC4)C2)C3=O)cc1F)N1CCCC1` (as salt: hydrochloride) [Example 48, 2-[(3R)-1-cyclobutylpyrrolidin-3-yl]-6-[3-fluoro-4-(pyrrolidin-1-ylcarbonyl)phenyl]-3,4-dihydroisoquinolin-1(2H)-one] it is 235 to 236 °C. The figure for `CC(C)N1CCC[C@@H](N2CCc3cc(-c4ccc(C(=O)N5CCCC5)cc4)ccc3C2=O)C1` (as salt: hydrochloride) [Example 72, 2-[(3R)-1-isopropylpiperidin-3-yl]-6-[4-(pyrrolidin-1-ylcarbonyl)phenyl]-3,4-dihydroisoquinolin-1(2H)-one] is 274 to 275 °C.

In the case of `CN(C)C(=O)c1ccc(-c2ccc3c(c2)CCN([C@@H]2CCN(C4CCC4)C2)C3=O)cc1` (as salt: hydrochloride) [Example 46, 4-{2-[(3R)-1-cyclobutylpyrrolidin-3-yl]-1-oxo-1,2,3,4-tetrahydroisoquinolin-6-yl}-N,N-dimethylbenzamide], the melting point lay in the range of 211 to 212 °C. `CCNC(=O)c1ccc(Oc2ccc3c(c2)CCN([C@@H]2CCN(C4CCCC4)C2)C3=O)cc1` (as salt: hydrochloride) [Example 38, 4-({2-[(3R)-1-cyclopentylpyrrolidin-3-yl]-1-oxo-1,2,3,4-tetrahydroisoquinolin-6-yl}oxy)-N-ethylbenzamide] yielded a melting point of 178 to 180 °C. For `N#Cc1ccc(-c2ccc3c(c2)CN(C2CCN(C4CCCCC4)CC2)C3=O)cc1` (as salt: hydrochloride) [Example 30, 4-[2-(1-Cyclohexylpiperidin-4-yl)-1-oxo-2,3-dihydro-1H-isoindol-5-yl]benzonitrile] the value was over 300 °C; for `CC(C)N1CC[C@@H](N2CCc3cc(-c4ccc(C(=O)N5CCCC5)cc4)ccc3C2=O)C1` (as salt: hydrochloride) [Example 56, 2-[(3R)-1-(1-methylethyl)pyrrolidin-3-yl]-6-[4-(pyrrolidin-1-ylcarbonyl)phenyl]-3,4-dihydroisoquinolin-1(2H)-one], 220 to 222 °C; for `O=C(c1ccc(-c2ccc3c(c2)CN([C@@H]2CCN(C4CCC4)C2)C3=O)cc1)N1CCCC1` (as salt: hydrochloride) [Example 92, (R)-2-(1-cyclobutylpyrrolidin-3-yl)-5-(4-(pyrrolidine-1-carbonyl)-phenyl)isoindolin-1-one hydrochloride], 220 to 221 °C.
